Reference: the SangsterLogP compilation

| Compound | logP |
| --- | --- |
| CC(NCc1ccccc1)=C1CCOC1=O | 2.21 |
| O=C1OCCC1NCc1ccc(Cl)cc1 (centres undefined) | 1.97 |
| COc1ccc(Cl)cc1N1CCN(C2CCOC2=O)CC1 (centres undefined) | 1.18 |
| COc1cc2c(cc1OC)C(c1ccccc1)N(C1CCOC1=O)CC2 (centres undefined) | 3.12 |
| COc1cccc(N2CCN(C3CCOC3=O)CC2)c1 (centres undefined) | 2.29 |
| O=C1OCCC1NCc1ccccc1 (centres undefined) | 1.47 |
| CC(Nc1ccccc1)=C1CCOC1=O | 2.27 |
| O=C1CC(N2CCN(c3ccccc3)CC2)CO1 (centres undefined) | 1.22 |
| O=C1OCCC1N1CCN(c2cccc(C(F)(F)F)c2)CC1 (centres undefined) | 2.94 |
| Cc1cccc(C)c1NC1CCOC1=O (centres undefined) | 1.39 |
| COc1ccccc1N1CCN(C2CCOC2=O)CC1 (centres undefined) | 1.44 |
| O=C(NC1CCOC1=O)c1ccccc1 (centres undefined) | 0.84 |
| COc1cc2c(cc1OC)CN(C1CCOC1=O)CC2 (centres undefined) | 1.83 |
| O=C1OCCC1N1C(=O)c2ccccc2C1=O (centres undefined) | 1.11 |
| COc1ccc(N2CCN(C3CCOC3=O)CC2)cc1 (centres undefined) | 1.46 |
| CC1CC(N2CCN(c3ccccc3)CC2)C(=O)O1 (centres undefined) | 1.56 |

Further lines, results first:

| logP | Compound |
| --- | --- |
| 2.43 | O=C1OCCC1N1CCC(c2ccccc2)CC1 (centres undefined) |
| 1.76 | CC1CC(NCc2ccccc2)C(=O)O1 (centres undefined) |
| 0.93 | NC(=O)c1ccccc1OC1CCOC1=O (centres undefined) |
| 1.65 | O=C1OCCC1N1CCN(c2ccccc2)CC1 (centres undefined) |
| 2.05 | O=C1OCCC1N1CCN(c2ccc(F)cc2)CC1 (centres undefined) |
| 3.28 | O=C1OCCC1N1CCN(C(c2ccccc2)c2ccccc2)CC1 (centres undefined) |
| 1.32 | O=C1OCCC1Oc1ccc(Oc2ccccc2)cc1 (centres undefined) |
| 1.6 | O=C1OCCC1N1CCc2ccccc2C1 (centres undefined) |
| 0.8 | O=C(Cc1ccccc1)NC1CCOC1=O (centres undefined) |
| 1.43 | COc1ccc(CNC2CCOC2=O)cc1 (centres undefined) |
| 1.2 | O=C1OCCC1N1Cc2ccccc2C1 (centres undefined) |
| 1.83 | O=C1OCCC1NCc1ccccc1C(F)(F)F (centres undefined) |
| 2.53 | COc1ccc(CCNC(C)=C2CCOC2=O)cc1OC |
